Test results reported in PubChem BioAssay AID270 (DTP/NCI, 2004).
Several values for one entry are separate records, joined by “and”; a condition that tells them apart may be missing. Equal entries are not always repeated. Inconclusive results are not listed.

Test system: BDF1 mice, s.c. Lewis lung carcinoma, T/C %
Assay: NCI In Vivo Anticancer Drug Screen. Data for tumor model Lewis Lung Carcinoma (subcutaneous) in B6D2F1 (BDF1) mice
Procedure, shortened: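 Transplanted tumors grown in mice; compound vs vehicle dosing; endpoint survival or tumor size; ratio T/C.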

[1] = endpoint: mean tumor weight, dose: 25.0 mg/kg/injection, schedule: Q01DX011 (ip), vehicle: saline, higher = larger tumour
[2] = endpoint: mean tumor weight, dose: 50.0 mg/kg/injection, schedule: Q01DX011 (ip), vehicle: saline, higher = larger tumour
[3] = endpoint: mean tumor weight, dose: 100.0 mg/kg/injection, schedule: Q01DX011 (ip), vehicle: saline, higher = larger tumour

## C[C@H](N)C(=O)N[C@@H]1[C@H]2C(=C(O)C[C@@H](O)[C@@H]2O)C(=O)O[C@@H]1C
endpoint: mean tumor weight, dose: 300.0 mg/kg/injection, schedule: Q01DX011 (ip), vehicle: saline, higher = larger tumour
  T/C: 83 % of control
endpoint: mean tumor weight, dose: 600.0 mg/kg/injection, schedule: Q01DX011 (ip), vehicle: saline, higher = larger tumour
  T/C: 60 % of control
endpoint: mean tumor weight, dose: 1200.0 mg/kg/injection, schedule: Q01DX011 (ip), vehicle: saline, higher = larger tumour
  T/C: 89 % of control

## C=C(C)[C@@H]1CC[C@]2(CO)CC[C@]3(C)[C@H](CC[C@@H]4[C@@]5(C)CC[C@H](O)C(C)(C)[C@@H]5CC[C@]43C)[C@@H]12
endpoint: mean tumor weight, dose: 100.0 mg/kg/injection, schedule: Q01DX011 (ip), vehicle: carboxymethylcellulose (CMC), higher = larger tumour
  T/C: 101 % of control
endpoint: mean tumor weight, dose: 200.0 mg/kg/injection, schedule: Q01DX011 (ip), vehicle: carboxymethylcellulose (CMC), higher = larger tumour
  T/C: 68 % of control

## OCC(Br)CBr (stereo not given)
endpoint: mean tumor weight, dose: 37.0 mg/kg/injection, schedule: Q01DX011 (ip), vehicle: other, higher = larger tumour
  T/C: 97 % of control
endpoint: mean tumor weight, dose: 55.0 mg/kg/injection, schedule: Q01DX011 (ip), vehicle: other, higher = larger tumour
  T/C: 66 % of control

## S=C(N=Nc1ccccc1)NNc1ccccc1
endpoint: mean tumor weight, dose: 45.0 mg/kg/injection, schedule: Q01DX011 (ip), vehicle: carboxymethylcellulose (CMC), higher = larger tumour
  T/C: 60 % of control

## CN1CCCC1c1cccnc1 (stereo not given)
endpoint: mean tumor weight, dose: 1.0 mg/kg/injection, schedule: Q01DX011 (ip), vehicle: carboxymethylcellulose (CMC), higher = larger tumour
  T/C: 62 % of control
endpoint: mean tumor weight, dose: 2.0 mg/kg/injection, schedule: Q01DX011 (ip), vehicle: carboxymethylcellulose (CMC), higher = larger tumour
  T/C: 75 % of control
endpoint: mean tumor weight, dose: 4.0 mg/kg/injection, schedule: Q01DX011 (ip), vehicle: carboxymethylcellulose (CMC), higher = larger tumour
  T/C: 72 % of control

## O=[N+]([O-])c1ccc(Cl)c2c([N+](=O)[O-])cccc12
endpoint: median survival time, dose: 6.25 mg/kg/injection, schedule: Q01DX009 (ip), vehicle: Klucel (hydroxypropylcellulose) (HPC), higher = longer survival
  T/C: 118 % of control
endpoint: median survival time, dose: 12.5 mg/kg/injection, schedule: Q01DX009 (ip), vehicle: Klucel (hydroxypropylcellulose) (HPC), higher = longer survival
  T/C: 114 % of control
endpoint: median survival time, dose: 50.0 mg/kg/injection, schedule: Q01DX009 (ip), vehicle: Klucel (hydroxypropylcellulose) (HPC), higher = longer survival
  T/C: 103 % of control
endpoint: median survival time, dose: 100.0 mg/kg/injection, schedule: Q01DX009 (ip), vehicle: Klucel (hydroxypropylcellulose) (HPC), higher = longer survival
  T/C: 111 % of control

## COc1ccccc1NC(=O)N(CCCl)N=O
endpoint: median survival time, dose: 0.39 mg/kg/injection, schedule: Q01DX009 (ip), vehicle: saline with Tween-80, higher = longer survival
  T/C: 95 % of control
endpoint: median survival time, dose: 0.78 mg/kg/injection, schedule: Q01DX009 (ip), vehicle: saline with Tween-80, higher = longer survival
  T/C: 88 % of control
endpoint: median survival time, dose: 1.56 mg/kg/injection, schedule: Q01DX009 (ip), vehicle: saline with Tween-80, higher = longer survival
  T/C: 93 % of control
endpoint: median survival time, dose: 3.13 mg/kg/injection, schedule: Q01DX009 (ip), vehicle: saline with Tween-80, higher = longer survival
  T/C: 98 % of control

## CC(=O)NCCSC(=O)C(=O)SCCNC(C)=O
[1]
  T/C: 95 % of control
[2]
  T/C: 106 % of control
[3]
  T/C: 67 % of control

## CC[C@@H]1O[C@@H]([C@@H]2CC[C@](O)([C@]3(C)CC[C@@H]([C@@H](C)[C@@]4(O)CC[C@H](C)[C@@H](C[C@@]5(O)O[C@@H]([C@@H](C)[C@H](O)C[C@H]6CC[C@H](C)[C@@H]([C@@H](C)C(=O)O)O6)CC[C@@H]5C)O4)O3)O2)CC[C@@]1(C)O
endpoint: median survival time, dose: 0.12 mg/kg/injection, schedule: Q01DX009 (ip), vehicle: saline, higher = longer survival
  T/C: 106 % of control
endpoint: median survival time, dose: 0.25 mg/kg/injection, schedule: Q01DX009 (ip), vehicle: saline, higher = longer survival
  T/C: 110 % of control
endpoint: median survival time, dose: 0.5 mg/kg/injection, schedule: Q01DX009 (ip), vehicle: saline, higher = longer survival
  T/C: 106 % of control
endpoint: median survival time, dose: 1.0 mg/kg/injection, schedule: Q01DX009 (ip), vehicle: saline, higher = longer survival
  T/C: 97 % of control

## COc1ccc(CN2CCCN(Cc3ccc(OC)cc3)C2c2ccc(Cl)cc2Cl)cc1
endpoint: mean tumor weight, dose: 74.0 mg/kg/injection, schedule: Q01DX011 (ip), vehicle: other, higher = larger tumour
  T/C: 119 % of control
endpoint: mean tumor weight, dose: 166.0 mg/kg/injection, schedule: Q01DX011 (ip), vehicle: other, higher = larger tumour
  T/C: 111 % of control

## CN(C)N=Nc1n[nH]nc1C(N)=O
endpoint: median tumor weight (est.), dose: 134.5 mg/kg/injection, schedule: Q01DX009 (ip), vehicle: saline, higher = larger tumour
  T/C: 102 % of control
endpoint: median tumor weight (est.), dose: 269.0 mg/kg/injection, schedule: Q01DX009 (ip), vehicle: saline, higher = larger tumour
  T/C: 81 % of control
endpoint: median tumor weight (est.), dose: 538.0 mg/kg/injection, schedule: Q01DX009 (ip), vehicle: saline, higher = larger tumour
  T/C: 79 % of control

## CCCCn1cnc2c(=S)nc[nH]c21
endpoint: mean tumor weight, dose: 15.0 mg/kg/injection, schedule: Q01DX011 (ip), vehicle: water, higher = larger tumour
  T/C: 49 % of control
endpoint: mean tumor weight, dose: 30.0 mg/kg/injection, schedule: Q01DX011 (ip), vehicle: water, higher = larger tumour
  T/C: 60 % of control
endpoint: mean tumor weight, dose: 60.0 mg/kg/injection, schedule: Q01DX011 (ip), vehicle: water, higher = larger tumour
  T/C: 53 % of control

## CCCCCC[C@@H](O)C/C=C\CCCCCCCC(=O)O
[1]
  T/C: 104 % of control
[2]
  T/C: 77 % of control
[3]
  T/C: 59 % of control

## N=C(N)c1ccc(OCCCOc2ccc(C(=N)N)cc2Br)c(Br)c1
endpoint: median survival time, dose: 6.25 mg/kg/injection, schedule: Q01DX009 (ip), vehicle: saline, higher = longer survival
  T/C: 122 % of control

## Cc1ccccc1Cc1ccccc1
endpoint: mean tumor weight, dose: 78.0 mg/kg/injection, schedule: Q01DX011 (ip), vehicle: saline, higher = larger tumour
  T/C: 121 % of control
endpoint: mean tumor weight, dose: 117.0 mg/kg/injection, schedule: Q01DX011 (ip), vehicle: saline, higher = larger tumour
  T/C: 111 % of control
endpoint: mean tumor weight, dose: 175.0 mg/kg/injection, schedule: Q01DX011 (ip), vehicle: saline, higher = larger tumour
  T/C: 85 % of control
endpoint: mean tumor weight, dose: 263.0 mg/kg/injection, schedule: Q01DX011 (ip), vehicle: saline, higher = larger tumour
  T/C: 103 % of control

## O=C(O)C(=O)c1ccc(-c2ccccc2)cc1
endpoint: mean tumor weight, dose: 35.0 mg/kg/injection, schedule: Q01DX011 (ip), vehicle: methylcellulose (MC), higher = larger tumour
  T/C: 82 % of control
endpoint: mean tumor weight, dose: 50.0 mg/kg/injection, schedule: Q01DX011 (ip), vehicle: methylcellulose (MC), higher = larger tumour
  T/C: 68 % of control
endpoint: mean tumor weight, dose: 75.0 mg/kg/injection, schedule: Q01DX011 (ip), vehicle: methylcellulose (MC), higher = larger tumour
  T/C: 52 % of control
endpoint: mean tumor weight, dose: 110.0 mg/kg/injection, schedule: Q01DX011 (ip), vehicle: methylcellulose (MC), higher = larger tumour
  T/C: 52 % of control

## CC1CCCCN1 (stereo not given)
endpoint: mean tumor weight, dose: 12.5 mg/kg/injection, schedule: Q01DX011 (ip), vehicle: saline, higher = larger tumour
  T/C: 95 % of control
[1]
  T/C: 85 % of control
[2]
  T/C: 80 % of control

## Cc1ccc(NC(=O)N(CCBr)N=O)cc1
endpoint: median survival time, dose: 0.5 mg/kg/injection, schedule: Q01DX009 (ip), vehicle: other, higher = longer survival
  T/C: 101 % of control
endpoint: median survival time, dose: 1.0 mg/kg/injection, schedule: Q01DX009 (ip), vehicle: other, higher = longer survival
  T/C: 103 % of control
endpoint: median survival time, dose: 1.6 mg/kg/injection, schedule: Q01DX009 (ip), vehicle: other, higher = longer survival
  T/C: 97 % of control
endpoint: median survival time, dose: 2.0 mg/kg/injection, schedule: Q01DX009 (ip), vehicle: other, higher = longer survival
  T/C: 106 % of control
endpoint: median survival time, dose: 4.0 mg/kg/injection, schedule: Q01DX009 (ip), vehicle: other, higher = longer survival
  T/C: 97 % of control
endpoint: median survival time, dose: 6.25 mg/kg/injection, schedule: Q01DX009 (ip), vehicle: other, higher = longer survival
  T/C: 94 % of control and 99 % of control
endpoint: median survival time, dose: 12.5 mg/kg/injection, schedule: Q01DX009 (ip), vehicle: other, higher = longer survival
  T/C: 95 % of control
endpoint: median survival time, dose: 25.0 mg/kg/injection, schedule: Q01DX009 (ip), vehicle: other, higher = longer survival
  T/C: 96 % of control
endpoint: median survival time, dose: 50.0 mg/kg/injection, schedule: Q01DX009 (ip), vehicle: other, higher = longer survival
  T/C: 96 % of control

## O=C(O)CCC(=O)O
endpoint: median survival time, dose: 0.62 mg/kg/injection, schedule: Q01DX009 (ip), vehicle: water, higher = longer survival
  T/C: 110 % of control
endpoint: median survival time, dose: 1.25 mg/kg/injection, schedule: Q01DX009 (ip), vehicle: water, higher = longer survival
  T/C: 103 % of control
endpoint: median survival time, dose: 2.5 mg/kg/injection, schedule: Q01DX009 (ip), vehicle: water, higher = longer survival
  T/C: 93 % of control
endpoint: median survival time, dose: 5.0 mg/kg/injection, schedule: Q01DX009 (ip), vehicle: water, higher = longer survival
  T/C: 93 % of control and 108 % of control
endpoint: median survival time, dose: 10.0 mg/kg/injection, schedule: Q01DX009 (ip), vehicle: water, higher = longer survival
  T/C: 102 % of control and 107 % of control
endpoint: median survival time, dose: 20.0 mg/kg/injection, schedule: Q01DX009 (ip), vehicle: water, higher = longer survival
  T/C: 106 % of control and 115 % of control and 97 % of control
endpoint: median survival time, dose: 40.0 mg/kg/injection, schedule: Q01DX009 (ip), vehicle: water, higher = longer survival
  T/C: 96 % of control and 103 % of control and 108 % of control
endpoint: median survival time, dose: 80.0 mg/kg/injection, schedule: Q01DX009 (ip), vehicle: water, higher = longer survival
  T/C: 104 % of control

## CC(C)Sc1nc(N)nc2nc[nH]c12
endpoint: mean tumor weight, dose: 12.5 mg/kg/injection, schedule: Q01DX011 (ip), vehicle: other, higher = larger tumour
  T/C: 75 % of control
endpoint: mean tumor weight, dose: 25.0 mg/kg/injection, schedule: Q01DX011 (ip), vehicle: other, higher = larger tumour
  T/C: 95 % of control
endpoint: mean tumor weight, dose: 50.0 mg/kg/injection, schedule: Q01DX011 (ip), vehicle: other, higher = larger tumour
  T/C: 67 % of control
endpoint: mean tumor weight, dose: 100.0 mg/kg/injection, schedule: Q01DX011 (ip), vehicle: other, higher = larger tumour
  T/C: 48 % of control and 62 % of control
endpoint: mean tumor weight, dose: 200.0 mg/kg/injection, schedule: Q01DX011 (ip), vehicle: other, higher = larger tumour
  T/C: 52 % of control
endpoint: mean tumor weight, dose: 400.0 mg/kg/injection, schedule: Q01DX011 (ip), vehicle: other, higher = larger tumour
  T/C: 30 % of control

## COc1cc2c[n+](C)c3c4cc5c(cc4ccc3c2cc1OC)OCO5 (tested in a mixture with another compound)
endpoint: median survival time, dose: 5.0 mg/kg/injection, schedule: Q01DX009 (ip), vehicle: saline, higher = longer survival
  T/C: 92 % of control
endpoint: median survival time, dose: 10.0 mg/kg/injection, schedule: Q01DX009 (ip), vehicle: saline, higher = longer survival
  T/C: 96 % of control
endpoint: median survival time, dose: 20.0 mg/kg/injection, schedule: Q01DX009 (ip), vehicle: saline, higher = longer survival
  T/C: 86 % of control
